The text below walks through data of patent US7740867B2, “Method for identification of virulence determinants” (priority 2000, dated 2010).

Assay [1] concerns M. paratuberculosis strain K-10. Briefly: Minimal inhibitory concentration (MIC) determination. It is filed as cell-based, Mycobacterium paratuberculosis. The text has this:
The exact amount of the antimicrobial used will vary with the particular substance and organism in question. In general, the concentration of the antimicrobial should exceed the approximate minimal inhibitory concentration (MIC) for the particular organism being studied. Determination of MIC is routine in the art and can be accomplished by the skilled technician without undue experimentation. […] In another embodiment, the concentration of Bay y 3118 is 5× the MIC. […] In yet another embodiment, the concentration of D-cycloserine is 5× the MIC.

The test system is the same in assay [2]. Put plainly: Susceptibility of growing and non-growing M. paratuberculosis in broth culture to antimicrobial agents. It is filed as cell-based, Mycobacterium paratuberculosis. How it is done: Antimicrobial agents (antibiotics) tested were the fluoroquinolone Bay y 3118, and D-cycloserine. The aminoglycoside amikacin which kills both growing and non-growing M. paratuberculosis, was included as a control. M. paratuberculosis strain K-10 was grown in complete Middlebrook 7H9 medium containing mycobactin J as described above to an optical density (OD600) of 0.3 to 0.4. For non growing conditions, cells (200 ml) were harvested at room temperature, washed in MSS (Middlebrook 7H9 salt solution: 1.0 g/L KH2PO4, 0.05 g/L MgSO4, NH4SO4, 2.5 g/L Na2HPO4, 0.0005 g/L CaCl2, 0.001 g/L ZnSO4, and 0.001 g/L CuSO4), and resuspended in MSS as a single-cell suspension (Williams et al., J. Clin. Microbiol., 37:304-309, 1999). Aliquots (10 ml at a cell density of 2×10^8 CFU/mL) were placed in sterile tissue culture flasks, and antibiotics were added at the following final concentrations Bay y 3118: 0.075 μg/mL (5×MIC) and 0.3 μg/mL (20×MIC); D-cyloserine: 125 μg/mL (5×MIC) and 500 μg/mL (20×MIC); amikacin: 10 μg/mL (5×MIC), and 40 μg/mL (20×MC). These cultures and a control without antibiotics (0×) were incubated at 37° C. and appropriate dilutions were plated in triplicate onto complete Middlebrook 7H9 medium at various time points. […] For growing conditions, cells were treated as described except that the growth control (0×) was diluted 1:10 and all cells were washed and resuspended in complete medium instead of MSS. The cells were also inoculated into MSS (no-growth control).

Assay [3] deals with Mycobacterium avium within human macrophages. As to conditions: reported by Bermudez et al., 1999; cited from earlier work.
Where [4] appears, read: 5× the MIC, MSS salt solution (non growing conditions), 37° C., FIG. 3.
Where [5] appears, read: 5× the MIC, complete Middlebrook 7H9 medium (growing conditions), 37° C., FIG. 3.

Turning to `Cl.O=C(O)c1cn(C2CC2)c2c(Cl)c(N3C[C@@H]4CCCN[C@@H]4C3)c(F)cc2c1=O` [Bay y 3118], the MIC result in assay [1] is “approximately 0.015 μg/mL”. Further, in assay [2] (setting [4]), the “effect on non growing bacteria” value is “does not kill non growing bacteria”. Also, in assay [2] (setting [5]), the “effect on growing bacteria” value was “has a bactericidal action on growing bacteria”. In assay [3], the “killing of growing versus non-growing Mycobacterium avium within human macrophages” value was “kill growing but not non-growing”.

In the case of `NCC[C@H](O)C(=O)N[C@@H]1C[C@H](N)[C@@H](O[C@H]2O[C@H](CN)[C@@H](O)[C@H](O)[C@H]2O)[C@H](O)[C@H]1O[C@H]1O[C@H](CO)[C@@H](O)[C@H](N)[C@H]1O` [Amikcin, amikacin], in assay [2] (concentration not given (5× and 20× MIC tested)), the “susceptibility of bacteria in stasis compared with growing bacteria” value is given as “particularly more susceptible”. In addition, the “effect on growing bacteria” value in assay [2] (concentration not given (5× and 20× MIC tested), growing conditions) was “bactericidal”. The “effect on non growing bacteria” value in assay [2] (concentration not given (5× and 20× MIC tested), non growing conditions) is recorded as “bactericidal”.

Take `N[C@@H]1CONC1=O` [D-cycloserine]: the MIC result in assay [1] is “approximately 25 μg/mL”. Further, the “effect on non growing bacteria” value in assay [2] (setting [4]) is “moderate bactericidal effect”; in assay [2] (20× the MIC, MSS salt solution (non growing conditions), 37° C., FIG. 3), “moderate bactericidal effect”. Moreover, the “effect on growing bacteria” value in assay [2] (setting [5]) was “moderate bactericidal effect”; in assay [2] (20× the MIC, complete Middlebrook 7H9 medium (growing conditions), 37° C., FIG. 3) it was “moderate bactericidal effect”.
